Laboratory results as given in patent publication US9469645B2, “Compounds and compositions for the treatment of parasitic diseases” (Novartis AG, priority 2009, dated 2016).

The molecules below were run on 3D7 P. falciparum strain (assay: parasite proliferation assay in infected red blood cells (SYBR Green I)). Details: Plasmodium falciparum, 3D7, Erythrocyte, 3D7 strain; read-out: EC50 3D7 strain.
Assay type: cell-based, Plasmodium falciparum
From the text: (§1) Compounds of the invention can be assayed to measure their capacity to inhibit proliferation of parasitemia in infected red blood cells. The proliferation is quantified by the addition of SYBR Green I (INVITROGEN)® dye which has a high affinity for double stranded DNA.
The following assay illustrates the invention without in any way limiting the scope of the invention. This parasite proliferation assay measures the increase in parasite DNA content using a DNA intercalating dye, SYBR Green®.
3D7 P. falciparum strain is grown in complete culturing media until parasitemia reaches 3% to 8% with O+ human erythrocytes. 20 μl of screening media is dispensed into 384 well assay plates. […] 10 μl of lysis buffer (saponin, triton-X, EDTA) containing a 10× solution of SYBR Green I® in RPMI media is dispensed into the plates. The plates are lidded and kept at room temperature overnight for the lysis of the infected red blood cells.

| SMILES | EC50 [nM] |
| --- | --- |
| CCc1ccc(Nc2c(-c3ccc(F)cc3)nc3n2CCN(C(=O)CN)C3(C)C)cc1 [Compound 648] | 9 |
| CC(C)(O)CC(=O)N1CCn2c(nc(-c3ccc(F)cc3)c2Nc2ccc(C#N)cc2)C1 [Compound 265] | 1350 |
| CN[C@@H](CC(C)C)C(=O)N1CCn2c(nc(-c3ccc(F)cc3)c2Nc2ccc(C)cc2)C1 [Compound 378] | 60 |
| NCC(=O)N1CCn2c(nc(-c3cccc(F)c3)c2Nc2ccc(F)cc2)C1 [Compound 56] | 10 |
| CC1(C)NC2c3nc(-c4ccc(F)cc4)c(Nc4ccc(F)c(F)c4)n3CCN2C1=O (centres unmarked) [Compound 646, 8-(3,4-difluorophenylamino)-9-(4-fluorophenyl)-2,2-dimethyl-1,2,5,6-tetrahydrodiimidazo[1,2-a:2′,1′-c]pyrazin-3(10bH)-one] | 5680 |
| CN1CCN(Cc2c(-c3ccc(F)cc3)nc3n2CCN(C(=O)CN)C3(C)C)CC1 [Compound 698] | 8810 |
| NCC(=O)N1CCn2c(nc(-c3ccc(Br)cc3)c2Nc2ccc(F)cc2)C1 [Compound 54] | 1290 |
| Cc1ccc(CC(=O)N2CCn3c(nc(-c4ccc(F)cc4)c3Nc3ccc(C)cc3)C2)cc1 [Compound 232] | 50 |
| Cc1ccc(Nc2c(-c3ccc(F)cc3)nc3n2CCN(C(=O)N2CCC(N4CCCC(C)C4)CC2)C3)cc1 (centres unmarked) [Compound 273] | 3330 |
| CN(C)C1CCN(c2c(-c3ccc(F)cc3)nc3n2CCN(C(=O)CN)C3(C)C)C1 (centres unmarked) [Compound 668] | 3430 |
| NCC(=O)N1CCn2c(nc(-c3ccc(F)cc3)c2Nc2ccc(F)c(Cl)c2)C1 [Compound 78] | 10 |
| NCC(=O)N1CCn2c(nc(-c3ccc(F)cc3)c2Nc2ccc(F)cc2F)C1 [Compound 80] | 60 |
| N[C@H](CC(=O)N1CCn2c(nc(-c3ccc(F)cc3)c2Nc2ccc(Cl)c(F)c2)C1)Cc1ccc(Br)cc1 [Compound 344] | 210 |
| Cc1ccc(Nc2c(-c3ccc(F)cc3)nc3n2CC(C)N(C(=O)CN)C3)cc1 (centres unmarked) [Compound 352] | 10 |
| NC(CC(F)(F)F)C(=O)N1CCn2c(nc(-c3ccc(F)cc3)c2Nc2ccc(Cl)c(F)c2)C1 (centres unmarked) [Compound 348] | 50 |
| COc1ccc(CSC[C@@H](N)C(=O)N2CCn3c(nc(-c4ccc(F)cc4)c3Nc3ccc(Cl)c(F)c3)C2)cc1 [Compound 346] | > 8800 |
| CC(C)(N)C(=O)N1CCn2c(nc(-c3ccc(F)cc3)c2Nc2ccc(F)c(Cl)c2)C1 [Compound 492] | 50 |
| O=C(Cc1ccccc1OC(F)(F)F)N1CCn2c(nc(-c3ccc(F)cc3)c2Nc2ccc(Cl)c(F)c2)C1 [Compound 333] | 1110 |
| Cc1ccc([S+]([O-])c2c(-c3ccc(F)cc3)nc3n2CCN(C(=O)CN)C3(C)C)cc1 (centres unmarked) [Compound 721, 2-amino-1-(2-(4-fluorophenyl)-8,8-dimethyl-3-(p-tolylsulfinyl)-5,6-dihydroimidazo[1,2-a]pyrazin-7 (8H)-yl)ethanone] | 42 |
| CC[C@H](C)[C@H](N)C(=O)N1CCn2c(nc(-c3ccc(F)cc3)c2Nc2ccc(Cl)c(F)c2)C1 [Compound 317] | 20 |

| SMILES | EC50 [nM] |
| --- | --- |
| CN(c1ccc(Cl)c(F)c1)c1c(-c2ccc(F)cc2)nc2n1CCN(C(=O)CN)C2 [Compound 293] | 20 |
| N[C@@H](CC1CC1)C(=O)N1CCn2c(nc(-c3ccc(F)cc3)c2Nc2ccc(F)cc2)C1 [Compound 466] | 30 |
| O=C([C@H]1Cc2ccccc2CN1)N1CCn2c(nc(-c3ccc(F)cc3)c2Nc2ccc(Cl)c(F)c2)C1 [Compound 347] | 5920 |
| COCCOCC(=O)N1CCn2c(nc(-c3ccc(F)cc3)c2Nc2ccc(C)cc2)C1 [Compound 351] | 1240 |
| O=C([C@@H](O)Cc1ccccc1)N1CCn2c(nc(-c3ccc(F)cc3)c2Nc2ccc(Cl)c(F)c2)C1 [Compound 334] | 50 |
| Cc1ccc(Nc2c(-c3ccc(F)cc3)nc3n2CCN(C(=O)C(O)c2ccc(O)cc2)C3)cc1 (centres unmarked) [Compound 130] | 10 |
| Cc1ccc(Nc2c(-c3ccc(F)cc3)nc3n2CCN(C(=O)[C@@H](N)C(C)C)C3)cc1 [Compound 169] | 40 |
| Cc1ccc(C[C@H](N)C(=O)N2CCn3c(nc(-c4ccc(F)cc4)c3Nc3ccc(Cl)c(F)c3)C2)cc1 [Compound 341] | 10 |
| Cc1ccc(Nc2c(-c3ccc(F)cc3)nc3n2CCN(C(=O)CCO)C3)cc1 [Compound 103] | 1020 |
| CO[C@@H](C)C(=O)N1CCn2c(nc(-c3ccc(F)cc3)c2Nc2ccc(C)cc2)C1 [Compound 198] | 1360 |
| Cc1ccc(Nc2c(-c3ccc(F)cc3)nc3n2CCN(C(=O)C(C)(C)C(O)c2ccc(C)cc2)C3)cc1 (centres unmarked) [Compound 119] | 4740 |
| NC(C(=O)N1CCn2c(nc(-c3ccc(F)cc3)c2Nc2ccc(Cl)c(F)c2)C1)C(F)(F)F (centres unmarked) [Compound 194] | 50 |
| NC(CC(=O)N1CCn2c(nc(-c3ccc(F)cc3)c2Nc2ccc(Cl)c(F)c2)C1)C(F)(F)F (centres unmarked) [Compound 339] | 520 |
| Fc1ccc(-c2nc3n(c2Nc2ccc(F)c(F)c2)CCNC3)cc1 [Compound 331, N-(3,4-difluorophenyl)-2-(4-fluorophenyl)-5,6,7,8-tetrahydroimidazo[1,2-a]pyrazin-3-amine] | 140 |
| O=C1CC(C(=O)N2CCn3c(nc(-c4ccc(F)cc4)c3Nc3ccc(Cl)c(F)c3)C2)CCN1 (centres unmarked) [Compound 337] | > 10000 |
| O=C(Cc1ccc(F)c(C(F)(F)F)c1)N1CCn2c(nc(-c3ccc(F)cc3)c2Nc2ccc(Cl)c(F)c2)C1 [Compound 335] | 2300 |
| Cc1ccc(Sc2c(-c3ccc(F)cc3)nc3n2CCN(C(=O)CN)C3(C)C)cc1 [Compound 713, 2-amino-1-(2-(4-fluorophenyl)-8,8-dimethyl-3-(p-tolylthio)-5,6-dihydroimidazo[1,2-a]pyrazin-7(8H)-yl)ethanone] | 8 |
| Cc1ccc(Nc2c(-c3ccc(F)cc3)nc3n2CCN(C(=O)CC(C)O)C3)cc1 (centres unmarked) [Compound 108] | 960 |
| Cc1ccc(Nc2c(-c3cc(F)ccc3F)nc3n2CCNC3)cc1 [Compound 330] | 4470 |
| Fc1ccc(-c2nc3n(c2Nc2ccc(F)c(Cl)c2)CCNC3)cc1 [Compound 447] | 230 |

| SMILES | EC50 [nM] |
| --- | --- |
| CCCCOCCOCC(=O)N1CCn2c(nc(-c3ccc(F)cc3)c2Nc2ccc(C)cc2)C1 [Compound 349] | 7480 |
| O=C(COc1ccccc1)N1CCn2c(nc(-c3ccc(F)cc3)c2Nc2ccc(Cl)c(F)c2)C1 [Compound 336] | 40 |
| O=C(C(Nc1ccccc1)c1ccccc1)N1CCn2c(nc(-c3ccc(F)cc3)c2Nc2ccc(Cl)c(F)c2)C1 (centres unmarked) [Compound 332] | 1040 |
| CC(C)(N)C(=O)N1CCn2c(nc(-c3cccc(F)c3)c2Nc2ccc(F)c(C#N)c2)C1 [Compound 353] | 210 |
| Cc1ccc(Nc2c(-c3ccc(F)cc3)nc3n2CCN(C(=O)C(C)(O)c2ccccc2)C3)cc1 (centres unmarked) [Compound 111] | 20 |
| O=C(C1NCc2ccccc21)N1CCn2c(nc(-c3ccc(F)cc3)c2Nc2ccc(Cl)c(F)c2)C1 (centres unmarked) [Compound 342] | 5240 |
| CC[C@H](N)C(=O)N1CCn2c(nc(-c3ccc(F)cc3)c2Nc2ccc(Cl)c(F)c2)C1 [Compound 393] | 20 |
| Cc1ccc(Nc2c(-c3ccc(F)cc3)nc3n2CCN(C(=O)[C@H]2CCC[C@@H]2O)C3)cc1 [Compound 105] | 850 |
| O=C([C@H]1CCCN1)N1CCn2c(nc(-c3ccc(F)cc3)c2Nc2ccc(Cl)c(F)c2)C1 [Compound 340] | 200 |
| O=C([C@@H]1CCCN1)N1CCn2c(nc(-c3ccc(F)cc3)c2Nc2ccc(Cl)c(F)c2)C1 [Compound 338] | 190 |
| Cc1ccc(Nc2c(-c3ccc(F)cc3)nc3n2CCN(C(=O)[C@H](O)Cc2ccccc2)C3)cc1 [Compound 109] | 40 |
| CC(C)C[C@H](N)C(=O)N1CCn2c(nc(-c3ccc(F)cc3)c2Nc2ccc(Cl)c(F)c2)C1 [Compound 322] | 40 |
| O=C(CN1CCC(C(F)(F)F)CC1)N1CCn2c(nc(-c3ccc(F)cc3)c2Nc2ccc(F)cc2)C1 [Compound 61] | 9240 |
| O=C([C@@H]1Cc2ccccc2N1)N1CCn2c(nc(-c3ccc(F)cc3)c2Nc2ccc(Cl)c(F)c2)C1 [Compound 343] | 7500 |
| CCOCC(=O)N1CCn2c(nc(-c3ccc(F)cc3)c2Nc2ccc(C)cc2)C1 [Compound 350] | 660 |
| CCCCC(=O)OC(C(=O)N1CCn2c(nc(-c3ccc(F)cc3)c2Nc2ccc(C)cc2)C1)c1ccccc1 (centres unmarked) [Compound 270] | 50 |
| Cc1ccc(Nc2c(-c3ccc(F)cc3)nc3n2CCN(C(=O)C2CCCO2)C3)cc1 (centres unmarked) [Compound 200] | 910 |
| Cc1ccc(Nc2c(-c3ccc(F)cc3)nc3n2CCN(C(=O)C(O)c2cc(F)cc(F)c2)C3)cc1 (centres unmarked) [Compound 123] | 30 |

Same assay, conditions: Plasmodium falciparum, 3D7, Erythrocyte, read-out: EC50 3D7 strain

| SMILES | EC50 [nM] |
| --- | --- |
| Cc1ccc(Nc2c(-c3ccc(F)cc3)nc3n2CCN(C(=O)C(O)(c2ccccc2)c2ccccc2)C3)cc1 [Compound 112] | 1430 |

What follows are molecules tested on W2 strain (assay: parasite proliferation assay in infected red blood cells (SYBR Green I), W2 strain). Details: Erythrocyte.
Assay type: cell-based
From the text: as §1

| SMILES | EC50 [nM] |
| --- | --- |
| CC(C)(O)CC(=O)N1CCn2c(nc(-c3ccc(F)cc3)c2Nc2ccc(C#N)cc2)C1 [Compound 265] | 1580 |
| CN[C@@H](CC(C)C)C(=O)N1CCn2c(nc(-c3ccc(F)cc3)c2Nc2ccc(C)cc2)C1 [Compound 378] | 63 |
| NCC(=O)N1CCn2c(nc(-c3cccc(F)c3)c2Nc2ccc(F)cc2)C1 [Compound 56] | 13 |
| NCC(=O)N1CCn2c(nc(-c3ccc(Br)cc3)c2Nc2ccc(F)cc2)C1 [Compound 54] | 764 |
| Cc1ccc(CC(=O)N2CCn3c(nc(-c4ccc(F)cc4)c3Nc3ccc(C)cc3)C2)cc1 [Compound 232] | 44 |
| Cc1ccc(Nc2c(-c3ccc(F)cc3)nc3n2CCN(C(=O)N2CCC(N4CCCC(C)C4)CC2)C3)cc1 (centres unmarked) [Compound 273] | 3470 |
| NCC(=O)N1CCn2c(nc(-c3ccc(F)cc3)c2Nc2ccc(F)cc2F)C1 [Compound 80] | 63 |
| Cc1ccc(Nc2c(-c3ccc(F)cc3)nc3n2CCN(C(=O)[C@H](O)C(C)C)C3)cc1 [Compound 205] | 4 |
| Cc1ccc(Nc2c(-c3ccc(F)cc3)nc3n2CCN(C(=O)[C@@H](O)Cc2ccccc2)C3)cc1 [Compound 106] | 4 |
| CN[C@H](CC(C)C)C(=O)N1CCn2c(nc(-c3ccc(F)cc3)c2Nc2ccc(C)cc2)C1 [Compound 377] | 574 |
| Cc1ccc(Nc2c(-c3ccc(F)cc3)nc3n2CCN(C(=O)C(O)c2ccccc2)C3)cc1 (centres unmarked) [Compound 82] | 7 |

Same assay, conditions: Plasmodium falciparum, Erythrocyte

| SMILES | EC50 [nM] |
| --- | --- |
| CCc1ccc(Nc2c(-c3ccc(F)cc3)nc3n2CCN(C(=O)CN)C3(C)C)cc1 [Compound 648] | 8 |
| CC1(C)NC2c3nc(-c4ccc(F)cc4)c(Nc4ccc(F)c(F)c4)n3CCN2C1=O (centres unmarked) [Compound 646, 8-(3,4-difluorophenylamino)-9-(4-fluorophenyl)-2,2-dimethyl-1,2,5,6-tetrahydrodiimidazo[1,2-a:2′,1′-c]pyrazin-3(10bH)-one] | 6130 |
| CN1CCN(Cc2c(-c3ccc(F)cc3)nc3n2CCN(C(=O)CN)C3(C)C)CC1 [Compound 698] | 9020 |
| CN(C)C1CCN(c2c(-c3ccc(F)cc3)nc3n2CCN(C(=O)CN)C3(C)C)C1 (centres unmarked) [Compound 668] | > 10000 |
